≈ marks a conversion by molar mass, not a printed value.
Columns and labels:
Assay in all cases: In vitro antibacterial activity, MIC by agar double dilution method
Format in all cases: cell-based
[1] = system: Enterococcus (6 strains); details: clinical isolates, 35° C. 16 hrs
Excerpt: (§1) Experimental method: The agar double dilution method (Antimicrob. Agents and Chemother, 40, 1996, 720-726) was used to determine the minimum inhibitory concentration (MIC) of the series of compounds of the invention and the positive control drug linezolid for the test strains. The multipoint inoculation system (Denley A400) was employed to inoculate the bacteria on the agar plate surface with different concentrations of drugs; inoculation amount on each point was about 10^6 CFU/mL. The plates were incubated at 35° C. for 16 hrs before the results were observed. The lowest drug concentration contained in the Petri dish without bacterial growth was used as the minimum inhibitory concentration (MIC value) of the drug fir that strain.
(§2) Test strains: All the test strains were clinically isolated pathogens which were collected from the Nanjing region, and they were re-identified by routine methods before use. 31 strains of the clinically isolated pathogens were chosen, including 6 strains of Enterococcus, 5 Staphylococcus aureus sensitive strains; 5 Staphylococcus epidermidis sensitive strains; 6 Staphylococcus aureus resistant strains; 5 Staphylococcus epidermidis resistant strains; and 4 Streptococcus pneumoniae resistant strains.
(§3) Compounds to be tested were first added 2 ml of DMSO to help them fully dissolved, then added sterile double distilled water to the desired concentration; to all the Petri dish with added drug liquid were added 20 mL MIT medium which was heat-melted to be liquid-like, to make the final drug concentration in the Petri dish to be 64, 32, 16, 8, 4, 2, 1, 0.5, 0.25, 0.125, 0.0625, and 0.031 μg/mL.
(§4) The positive control group was LZ (linezolid, brand name Zyvox, approved by the FDA in 2000 to be firstly sold in the United States, which is the first and also the only one of oxazolidinone antibacterial drugs allowed to enter clinical application).

[2] = system: Streptococcus pneumoniae resistant strains (4 strains); details: clinical isolates
Excerpt: as §1, §2, §3, §4

[3] = system: Staphylococcus aureus sensitive strains (5 strains); details: clinical isolates
Excerpt: as §1, §2, §3, §4

[4] = system: Staphylococcus epidermidis resistant strains (5 strains); details: clinical isolates
Excerpt: as §1, §2, §3, §4

[5] = system: Staphylococcus aureus resistant strains (6 strains); details: clinical isolates
Excerpt: as §1, §2, §3, §4

[6] = system: Staphylococcus epidermidis sensitive strains (5 strains); details: clinical isolates
Excerpt: as §1, §2, §3, §4

| SMILES | MIC [1] | MIC [2] | MIC [3] | MIC [4] | MIC [5] | MIC [6] |
| --- | --- | --- | --- | --- | --- | --- |
| O=C1COCCN1c1ccc(-c2ccc3c(c2)OC[C@H]2[C@H](CO)OC(=O)N32)cn1 [Compound 19, (3R,3aS)-3-(hydroxylmethyl)-7-(6-(3-oxomorpholin)pyridin-3-yl)-3a,4-dihydrobenzo[b]oxazolo[3,4-d][1,4]oxazin-1(3H)-one] | 2 to 4 µg/mL (≈ 5.03 to 10.1 µM) | 2 to 4 µg/mL (≈ 5.03 to 10.1 µM) | 2 to 4 µg/mL (≈ 5.03 to 10.1 µM) | 2 to 4 µg/mL (≈ 5.03 to 10.1 µM) | 2 to 4 µg/mL (≈ 5.03 to 10.1 µM) | 1 to 2 µg/mL (≈ 2.52 to 5.03 µM) |
| CN1CCN(c2ccc(-c3ccc4c(c3)OC[C@H]3[C@H](CO)OC(=O)N43)cn2)C(=O)C1 [Compound 20, (3R,3aS)-3-(hydroxylmethyl)-7-(6-(4-methyl-2-oxopiperazin-1-yl)pyridin-3-yl)-3a,4-dihydrobenzo[b]oxazolo[3,4-d][1,4]oxazin-1(3H)-one] | 16 to 32 µg/mL (≈ 39 to 78 µM) | 4 to 8 µg/mL (≈ 9.75 to 19.5 µM) | 2 to 4 µg/mL (≈ 4.87 to 9.75 µM) | 2 to 4 µg/mL (≈ 4.87 to 9.75 µM) | 2 to 4 µg/mL (≈ 4.87 to 9.75 µM) | 2 to 4 µg/mL (≈ 4.87 to 9.75 µM) |
| O=C1OC(CO)CN1c1ccc(-c2ccc3c(c2)OC[C@H]2[C@H](CO)OC(=O)N32)cn1 (stereo partly drawn) [Compound 24, (3R,3aS)-3-(hydroxylmethyl)-7-(6-(5-(hydroxylmethyl)-2-oxooxazolidin-3-yl)pyridin-3-yl)-3a,4-dihydrobenzo[b]oxazolo[3,4-d][1,4]oxazin-1(3H)-one] | 0.5 to 1 µg/mL (≈ 1.21 to 2.42 µM) | 1 µg/mL (≈ 2.42 µM) | 0.5 to 1 µg/mL (≈ 1.21 to 2.42 µM) | 0.5 to 1 µg/mL (≈ 1.21 to 2.42 µM) | 0.5 to 1 µg/mL (≈ 1.21 to 2.42 µM) | 0.25 to 0.5 µg/mL (≈ 0.605 to 1.21 µM) |
| O=C1O[C@H](CO)CN1c1ccc(-c2ccc3c(c2)OC[C@H]2[C@H](CO)OC(=O)N32)cn1 [Compound 25, (3R,3S)-3-(hydroxylmethyl)-7-(6-((S)-5-(hydroxylmethyl)-2-oxooxazolidin-3-yl)pyridin-3-yl)-3a,4-dihydrobenzo[b]oxazolo[3,4-d][1,4]oxazin-1(3H)-one] | 0.5 to 1 µg/mL (≈ 1.21 to 2.42 µM) | 1 µg/mL (≈ 2.42 µM) | 0.5 to 1 µg/mL (≈ 1.21 to 2.42 µM) | 0.5 to 1 µg/mL (≈ 1.21 to 2.42 µM) | 0.5 to 1 µg/mL (≈ 1.21 to 2.42 µM) | 0.5 to 1 µg/mL (≈ 1.21 to 2.42 µM) |

The remaining lines, values ahead:

| MIC [1] | MIC [2] | MIC [3] | MIC [4] | MIC [5] | MIC [6] | SMILES |
| --- | --- | --- | --- | --- | --- | --- |
| 0.5 to 1 µg/mL (≈ 1.21 to 2.42 µM) | 1 µg/mL (≈ 2.42 µM) | 0.5 to 1 µg/mL (≈ 1.21 to 2.42 µM) | 0.5 to 1 µg/mL (≈ 1.21 to 2.42 µM) | 0.5 to 1 µg/mL (≈ 1.21 to 2.42 µM) | 0.5 to 1 µg/mL (≈ 1.21 to 2.42 µM) | O=C1O[C@@H](CO)CN1c1ccc(-c2ccc3c(c2)OC[C@H]2[C@H](CO)OC(=O)N32)cn1 [Compound 26, (3R,3aS)-3-(hydroxylmethyl)-7-(6-((R)-5-(hydroxylmethyl)-2-oxo-oxazolidin-3-yl)pyridin-3-yl)-3a,4-dihydrobenzo[b]oxazolo[3,4-d][1,4]oxazin-1(3H)-one] |
| 1 µg/mL (≈ 2.52 µM) | 0.25 to 0.5 µg/mL (≈ 0.629 to 1.26 µM) | 1 µg/mL (≈ 2.52 µM) | 0.5 to 1 µg/mL (≈ 1.26 to 2.52 µM) | 1 µg/mL (≈ 2.52 µM) | 1 µg/mL (≈ 2.52 µM) | CN1C[C@@H](c2ccc(-c3ccc4c(c3)OC[C@H]3[C@H](CO)OC(=O)N43)cn2)OC1=O [Compound 27, (3R,3aS)-3-(hydroxylmethyl)-7-(6-((R)-3-methyl-2-oxazolidin-5-yl)pyridin-3-yl)-3a,4-dihydrobenzo[b]oxazolo[3,4-d][1,4]oxazin-1(3H)-one] |
| 2 µg/mL (≈ 5.03 µM) | 2 µg/mL (≈ 5.03 µM) | 2 µg/mL (≈ 5.03 µM) | 1 to 2 µg/mL (≈ 2.52 to 5.03 µM) | 2 µg/mL (≈ 5.03 µM) | 2 µg/mL (≈ 5.03 µM) | CN1C[C@H](c2ccc(-c3ccc4c(c3)OC[C@H]3[C@H](CO)OC(=O)N43)cn2)OC1=O [Compound 28, (3R,3aS)-3-(hydroxylmethyl)-7-(6-((S)-3-methyl-2-oxazolidin-5-yl)pyridin-3-yl)-3a,4-dihydrobenzo[b]oxazolo[3,4-d][1,4]oxazin-1(3H)-one] |
| 2 µg/mL (≈ 5.66 µM) | 1 to 2 µg/mL (≈ 2.83 to 5.66 µM) | 2 to 4 µg/mL (≈ 5.66 to 11.3 µM) | 1 to 2 µg/mL (≈ 2.83 to 5.66 µM) | 1 µg/mL (≈ 2.83 µM) | 1 µg/mL (≈ 2.83 µM) | NC1(c2ccc(-c3ccc4c(c3)OC[C@H]3[C@H](CO)OC(=O)N43)cn2)CC1 [Compound 29, (3R,3aS)-7-(6-(1-aminocyclopropyl)pyridin-3-yl)-3-(hydroxylmethyl)-3a,4-dihydrobenzo[b]oxazolo[3,4-d][1,4]oxazin-1(3H)-one] |
| 4 to 8 µg/mL (≈ 12.2 to 24.4 µM) | 4 to 16 µg/mL (≈ 12.2 to 48.9 µM) | 2 to 4 µg/mL (≈ 6.11 to 12.2 µM) | 0.5 to 4 µg/mL (≈ 1.53 to 12.2 µM) | 2 to 4 µg/mL (≈ 6.11 to 12.2 µM) | 1 to 2 µg/mL (≈ 3.05 to 6.11 µM) | NCc1ccc(-c2ccc3c(c2)OC[C@H]2[C@H](CO)OC(=O)N32)cn1 [Compound 30, (3R,3aS)-7-(6-(aminomethyl)pyridin-3-yl)-3-(hydroxylmethyl)-3a,4-dihydrobenzo[b]oxazolo[3,4-d][1,4]oxazin-1(3H)-one] |
| 16 µg/mL (≈ 40.4 µM) | 4 µg/mL (≈ 10.1 µM) | 2 to 4 µg/mL (≈ 5.05 to 10.1 µM) | 2 to 4 µg/mL (≈ 5.05 to 10.1 µM) | 2 to 4 µg/mL (≈ 5.05 to 10.1 µM) | 2 to 4 µg/mL (≈ 5.05 to 10.1 µM) | O=C1CNCCN1c1ccc(-c2ccc3c(c2)OC[C@H]2[C@H](CO)OC(=O)N32)cn1 [Compound 31, (3R,3aS)-3-(hydroxylmethyl)-7-(6-(2-oxopiperazin-1-yl)pyridin-3-yl)-3a,4-dihydrobenzo[b]oxazolo[3,4-d][1,4]oxazin-1(3H)-one] |
